This is an account of results in patent US10875851B2, “Factor XIIa inhibitors” (Merck Sharp & Dohme Corp., priority 2016, dated 2020).

The assay addresses human Factor XIIa (Homo sapiens (Human), UniProt P00748). Nature of the assay: Factor XIIa Assay. The class given is biochemical. The settings on record: purified human Factor XIIa 500 pM; substrate n-Acetyl-Lys-Pro-Arg-AFC 100 μM; pH 7.4; read-out: FXIIa IC50. The procedure, abridged: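 Purified human FXIIa at 500 pM final with 100 μM n-Acetyl-Lys-Pro-Arg-AFC in 50 mM HEPES, 150 mM NaCl, 5 mM CaCl2, 0.1% PEG 8000, pH 7.4, at room temperature or 37° C. Initial fluorogenic hydrolysis rates measured after enzyme–inhibitor equilibration; IC50 taken where Vi=Vo/2.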

Sequence of human Factor XIIa (P00748 373-615): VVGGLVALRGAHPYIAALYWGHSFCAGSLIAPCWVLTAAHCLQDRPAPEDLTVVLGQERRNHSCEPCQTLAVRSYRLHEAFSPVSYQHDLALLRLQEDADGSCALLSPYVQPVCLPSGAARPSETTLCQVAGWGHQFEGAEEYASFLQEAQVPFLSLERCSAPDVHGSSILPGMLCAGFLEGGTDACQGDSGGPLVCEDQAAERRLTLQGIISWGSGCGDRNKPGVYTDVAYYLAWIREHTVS

Consider `C[C@@H]1N=C(N2CCN(C(=O)[C@@H](CCCCNS(C)(=O)=O)NC3CCCCC3)[C@H](C(=O)NCc3cccs3)C2)O[C@H]1c1cccc(Cl)c1` [Example 125, (2S)-4-[(4S,5S)-5-(3-chlorophenyl)-4-methyl-4,5-dihydro-1,3-oxazol-2-yl]-1-[N^2-cyclohexyl-N^6-(methylsulfonyl)-D-lysyl]-N-(thiophen-2-ylmethyl)piperazine-2-carboxamide], for which the IC50 came to 23 nM. The figure for `CS(=O)(=O)NCCCC[C@@H](NC1CCCCC1)C(=O)N1CCN(C2=NCC3(CCCCC3)O2)C[C@H]1C(=O)NCc1cccs1` [Example 126, (2S)-1-[N^2-cyclohexyl-N^6-(methylsulfonyl)-D-lysyl]-4-(1-oxa-3-azaspiro[4.5]dec-2-en-2-yl)-N-(thiophen-2-ylmethyl)piperazine-2-carboxamide] is 21.1 nM; for `C[C@@H]1N=C(N2CCN(C(=O)[C@@H](CCCCNS(C)(=O)=O)NC3CCCCC3)[C@H](C(=O)NCc3cccs3)C2)O[C@H]1c1ccccc1C#N` [Example 127, (2S)-4-[(4S,5S)-5-(2-cyanophenyl)-4-methyl-4,5-dihydro-1,3-oxazol-2-yl]-1-[N^2-cyclohexyl-N^6-(methylsulfonyl)-D-lysyl]-N-(thiophen-2-ylmethyl)piperazine-2-carboxamide] it is 18.7 nM. The figure for `C[C@@H]1N=C(N2CCN(C(=O)[C@@H](CCCCNS(C)(=O)=O)NC3CCC4(CC3)CCN(Cc3ccccc3)C4)[C@H](C(=O)NCc3cccs3)C2)O[C@H]1c1ccccc1` (stereo partly drawn) [Example 128, (2S)-1-[N^2-(2-benzyl-2-azaspiro[4.5]dec-8-yl)-N^6-(methylsulfonyl)-D-lysyl]-4-[(4S,5S)-4-methyl-5-phenyl-4,5-dihydro-1,3-oxazol-2-yl]-N-(thiophen-2-ylmethyl)piperazine-2-carboxamide] is 10.2 nM. The figure for `C[C@@H]1N=C(N2CCN(C(=O)[C@@H](CCCCN)NC3CCC4(CC3)CCN(Cc3ccccc3)C4)[C@H](C(=O)NCc3cccs3)C2)O[C@H]1c1ccccc1` (stereo partly drawn) [Example 129, (2S)-1-[N^2-(2-benzyl-2-azaspiro[4.5]dec-8-yl)-D-lysyl]-4-[(4S,5S)-4-methyl-5-phenyl-4,5-dihydro-1,3-oxazol-2-yl]-N-(thiophen-2-ylmethyl)piperazine-2-carboxamide] is 13 nM; for `C[C@@H]1N=C(N2CCN(C(=O)[C@@H](CCCCN(C)C)NC3CCC4(CC3)CCN(Cc3ccccc3)C4)[C@H](C(=O)NCc3cccs3)C2)O[C@H]1c1ccccc1` (stereo partly drawn) [Example 130, (2S)-1-[N^2-(2-benzyl-2-azaspiro[4.5]dec-8-yl)-N^6,N^6-dimethyl-D-lysyl]-4-[(4S,5S)-4-methyl-5-phenyl-4,5-dihydro-1,3-oxazol-2-yl]-N-(thiophen-2-ylmethyl)piperazine-2-carboxamide] it is 1.2 nM. Consider `C[C@@H]1N=C(N2CCN(C(=O)[C@@H](CCCCN(C)C)N(C)C3CCC4(CC3)CCN(Cc3ccccc3)C4)[C@H](C(=O)NCc3cccs3)C2)O[C@H]1c1ccccc1` (stereo partly drawn) [Example 131, (2S)-1-[N^2-(2-benzyl-2-azaspiro[4.5]dec-8-yl)-N^2,N^6,N^6-trimethyl-D-lysl]-4-[(4S,5S)-4-methyl-5-phenyl-4,5-dihydro-1,3-oxazol-2-yl]-N-(thiophen-2-ylmethyl)piperazine-2-carboxamide], for which the half-inhibitory concentration (IC50) was 1.8 nM. To `C[C@@H]1N=C(N2CCN(C(=O)[C@@H](CCCCN(C)C)NC3CCC(CN)CC3)[C@H](C(=O)NCc3cccs3)C2)O[C@H]1c1ccccc1` (stereo partly drawn) [Example 133, (2S)-1-{N^2-[4-(aminomethyl)cyclohexyl]-N^6,N^6-dimethyl-D-lysyl}-4-[(4S,5S)-4-methyl-5-phenyl-4,5-dihydro-1,3-oxazol-2-yl]-N-(thiophen-2-ylmethyl)piperazine-2-carboxamide] belongs 6.6 nM.
